The record followed here is ChEMBL document CHEMBL1151608, “Unusual cytotoxicities of 5-(acylethynyl)-1-(2-hydroxyethoxy)methyluracils” (Bioorg Med Chem Lett, 1996).

What all share (assay type): functional, cell-based
Assay [1] relates to CCRF-CEM. Put plainly: In vitro cytotoxic effect of compound was measured against CCRF-CEM human lymphoblastoid cells.
Assay [2] has as its system HT-29. The assay is described as follows: In vitro cytotoxic effect of compound was measured against HT-29 tumor cells. The following applies: Homo sapiens.
The subject of assay [3] is L1210. Put plainly: In vitro cytotoxic effect of compound was measured against L1210/0 tumor cells in mouse.

Regarding `COc1ccc(C(=O)C#Cc2cn(COCCO)c(=O)[nH]c2=O)cc1`, the IC50 (commonly the concentration at which inhibition is half-maximal) in assay [1] is 1600 nM; in assay [2], 20000 nM; in assay [3], 1500 nM.

As to `Cc1ccccc1C(=O)C#Cc1cn(COCCO)c(=O)[nH]c1=O`, the IC50 in assay [1] turned out to be 900 nM; in assay [2], 25000 nM; in assay [3], 2200 nM.

Regarding `Cc1ccc(C(=O)C#Cc2cn(COCCO)c(=O)[nH]c2=O)cc1`, the values for the IC50 in assay [1], in assay [2] and in assay [3] were 700 nM, 8000 nM and 900 nM, respectively.

`Cc1cccc(C(=O)C#Cc2cn(COCCO)c(=O)[nH]c2=O)c1`: the IC50 in assay [1] amounted to 600 nM; in assay [2], 14000 nM; in assay [3] it was 700 nM.
